The record followed here is US7713994B2 (Wyeth LLC, priority 2005, dated 2010).

As usually defined, the IC50 is the concentration at which inhibition is half-maximal.

Like-named read-outs stand apart in the source and are kept apart here.

One assay relates to LoVo. Put plainly: Cytotoxicity assay (SRB), LoVo. Type of assay: cell-based. To be noted: LoVo cells, SRB, read-out: In Vitro Cellular Activity IC50 LOVO. In outline:
(§1)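 BT474 (12000 cells/well) was treated for 6 days, whereas HCT-116 (4000), LoVo (6000) and MCF-7 (6000) were treated for 3 days, all in RPMI 1640 containing 5% FBS. Surviving-cell percentage came from SRB dye binding measured at 540 nm.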

The subject of the next assay is MCF-7. Put plainly: Cytotoxicity assay (SRB), MCF-7. Type of assay: cell-based. The note with it: MCF-7 cells, SRB, read-out: In Vitro Cellular Activity IC50 MCF-7. An outline of the steps:
as §1

The subject of a further assay is HCT-116. Put plainly: Cytotoxicity assay (SRB), HCT-116. Type of assay: cell-based. To be noted: HCT116 cells, SRB, read-out: In Vitro Cellular Activity IC50 HCT116. An outline of the steps: as §1
For a further assay, the system named is BT474. Put plainly: Cytotoxicity assay (SRB), BT474. To be noted: BT474 cells, 6 days, SRB, read-out: In Vitro Cellular Activity IC50 BT474. Format: cell-based. An outline of the steps:
as §1

The target in a further assay is T1, cyclin E/CDK2 enzyme (Homo sapiens, UniProt P24941).
T1 construct: made in house; host or cells: Sf9 insect cells, recombinant baculovirus
Put plainly: CDK2 ELISA kinase assay (phospho-Rb ser 795 detection). Format: biochemical. In outline: (§2)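 Screening was done at 10 ug/ml compound. Each partially purified cyclin/CDK complex, produced in baculovirus-infected Sf9 cells, phosphorylated a coated GST-Rb C-terminal fragment with 200 μM ATP, and Ser795 phosphorylation was quantified by HRP-ELISA at 450 nm.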
On the technique in general: ELISA stands for enzyme-linked immunosorbent assay.

Another assay concerns the target T2, cyclin D1/cdk 4 enzyme (Homo sapiens, UniProt P11802).
T2 construct: made in house; host or cells: Sf9 insect cells, recombinant baculovirus
The assay is described as follows: CDK4 ELISA kinase assay (phospho-Rb ser 795 detection). Type of assay: biochemical. An outline of the steps:
as §2

The next assay concerns the target T3, cyclin B/CDK1 enzyme (Homo sapiens, UniProt P06493).
T3 construct: purchased New England BioLabs; host or cells: Sf9 insect cells, recombinant baculovirus
The assay is described as follows: CDK1 ELISA kinase assay (phospho-Rb ser 795 detection). Type of assay: biochemical. In outline:
as §2

[1] abbreviates: Homo sapiens, LoVo, 72 h, 3 days.
Where [2] appears, read: Homo sapiens, MCF7, 72 h, 3 days.
Setting [3] is: Homo sapiens, HCT-116, 72 h, 3 days.
[4] abbreviates: In Vitro Enzyme Assay, cyclin E/CDK2, read-out: CDK2 IC50.
The mark [5] stands for this setting: In Vitro Enzyme Assay, cyclin D1/cdk 4, read-out: CDK4 IC50.
The mark [6] stands for this setting: In Vitro Enzyme Assay, cyclin B/CDK1, read-out: CDK1 IC50.
Where [7] appears, read: In Vitro Enzyme Assays, read-out: CDK2 IC50.
The mark [8] stands for this setting: In Vitro Enzyme Assays, 200 μM ATP, read-out: CDK4 IC50.
Setting [9] is: In Vitro Enzyme Assays, read-out: CDK1 IC50.

T2 sequence (P11802 whole entry, species assumed): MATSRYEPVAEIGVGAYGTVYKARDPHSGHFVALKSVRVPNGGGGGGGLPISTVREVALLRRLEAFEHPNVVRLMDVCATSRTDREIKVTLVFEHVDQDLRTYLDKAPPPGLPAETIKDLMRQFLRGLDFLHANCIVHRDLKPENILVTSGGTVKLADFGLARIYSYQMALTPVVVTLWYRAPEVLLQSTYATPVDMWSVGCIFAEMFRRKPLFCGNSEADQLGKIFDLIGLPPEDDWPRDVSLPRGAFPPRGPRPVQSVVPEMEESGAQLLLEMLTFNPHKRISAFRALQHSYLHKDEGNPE
T2 sequence (P24385 whole entry partner, species assumed): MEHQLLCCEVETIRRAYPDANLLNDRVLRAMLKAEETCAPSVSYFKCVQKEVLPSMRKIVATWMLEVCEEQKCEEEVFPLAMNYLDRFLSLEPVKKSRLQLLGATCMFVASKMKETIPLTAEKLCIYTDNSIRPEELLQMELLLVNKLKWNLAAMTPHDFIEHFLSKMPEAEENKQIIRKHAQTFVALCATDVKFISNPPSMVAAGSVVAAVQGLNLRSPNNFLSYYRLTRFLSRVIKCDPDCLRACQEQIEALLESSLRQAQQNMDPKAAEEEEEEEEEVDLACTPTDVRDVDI
T3 sequence (P06493 whole entry): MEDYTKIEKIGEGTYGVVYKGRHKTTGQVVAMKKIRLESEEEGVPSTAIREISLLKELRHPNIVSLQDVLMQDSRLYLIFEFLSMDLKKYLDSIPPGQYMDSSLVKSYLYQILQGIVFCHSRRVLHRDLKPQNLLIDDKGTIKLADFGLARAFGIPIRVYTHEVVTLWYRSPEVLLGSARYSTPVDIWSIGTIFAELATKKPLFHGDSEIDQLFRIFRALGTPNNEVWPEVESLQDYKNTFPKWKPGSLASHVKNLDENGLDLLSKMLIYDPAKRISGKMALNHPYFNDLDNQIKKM
T3 sequence (P14635 whole entry partner): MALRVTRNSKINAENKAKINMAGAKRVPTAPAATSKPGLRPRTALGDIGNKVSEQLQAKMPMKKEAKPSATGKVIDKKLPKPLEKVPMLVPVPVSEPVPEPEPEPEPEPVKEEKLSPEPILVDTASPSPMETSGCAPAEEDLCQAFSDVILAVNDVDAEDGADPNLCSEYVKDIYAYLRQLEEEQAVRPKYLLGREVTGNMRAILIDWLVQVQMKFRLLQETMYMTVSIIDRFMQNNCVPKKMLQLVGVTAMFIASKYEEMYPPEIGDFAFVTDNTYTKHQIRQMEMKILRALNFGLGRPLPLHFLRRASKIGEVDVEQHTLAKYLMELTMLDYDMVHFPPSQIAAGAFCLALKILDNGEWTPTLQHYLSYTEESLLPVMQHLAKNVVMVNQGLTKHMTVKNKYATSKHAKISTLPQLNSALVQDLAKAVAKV

Turning to `CC(C)(C)c1ccc2c(c1)/C(=C/NCc1cc(O)c(-c3ccoc3)cc1F)C(=O)NC2=O` [Example 534, 6-tert-Butyl-4-[(2-fluoro-4-furan-3-yl-5-hydroxy-benzylamino)-methylene]-4H-isoquinoline-1,3-dione], the half-maximal inhibitory concentration (IC50) was 1.2 µM in the assay on LoVo (setting [1]); 2.6 µM with MCF-7 (setting [2]); 1.6 µM in the assay with HCT-116 (setting [3]); 0.73 µM with BT474 (Homo sapiens, BT-474, 144 h); > 50 µM on cyclin E/CDK2 enzyme (setting [4]); 0.09 µM at cyclin D1/cdk 4 enzyme (setting [5]). For the same compound, the IC50 at cyclin B/CDK1 enzyme (setting [6]) is > 50 µM.

In the case of `CCN1CCN(c2ccc(N/C=C3\C(=O)NC(=O)c4ccc(I)cc43)cn2)CC1` [Example 414, (4Z)-4-({[6-(4-Ethylpiperazin-1-yl)pyridin-3-yl]amino}methylene)-6-iodoisoquinoline-1,3(2H,4H)-dione], the IC50 in the assay on LoVo (setting [1]) is 6.2 µM; in the assay on MCF-7 (setting [2]) it was 6 µM; with HCT-116 (setting [3]), 2.4 µM; in the assay on BT474 (Homo sapiens, BT-474, 144 h), 6.2 µM; on cyclin E/CDK2 enzyme (setting [7]), > 50 µM; at cyclin D1/cdk 4 enzyme (setting [8]), 0.5 µM. In addition, the half-maximal inhibitory concentration (IC50) on cyclin B/CDK1 enzyme (setting [9]) is > 50 µM.

For the compound `CN1CCN(c2ccc(NC=C3C(=O)NCc4cc(-c5cccs5)ccc43)cc2)CC1` [Example 848, 4-{[4-(4-Methyl-piperazin-1-yl)-phenylamino]-methylene}-7-thiophen-2-yl-1,4-dihydro-2H-isoquinolin-3-one], the IC50 in the assay on LoVo (setting [1]) is 13.3 µM; in the assay with MCF-7 (setting [2]), 10.9 µM; in the assay with HCT-116 (setting [3]) it was 7.1 µM; in the assay on BT474 (Homo sapiens, BT-474, 144 h), 13.8 µM; at cyclin E/CDK2 enzyme (setting [4]), > 50 µM; at cyclin D1/cdk 4 enzyme (setting [5]), > 50 µM. Besides, the concentration for half-maximal inhibition (IC50) at cyclin B/CDK1 enzyme (setting [6]) came out at 44.4 µM.

Regarding “PEG5000thio-acetic acid 5-{[(6-bromo-1,3-dioxo-2,3-dihydro-1H-isoquinolin-4-ylidenemethyl)-amino]-methyl}-2-propoxy-phenyl ester [Example 228]”, the concentration for half-maximal inhibition (IC50) in the assay on LoVo (three days) is ~2.5 µM; with MCF-7 (three days) it was ~8.6 µM; in the assay on HCT-116 (three days), ~2.1 µM; in the assay on BT474 it was ~1.2 µM; at cyclin E/CDK2 enzyme (setting [7]), > 50 µM; on cyclin D1/cdk 4 enzyme (setting [8]), ~1.5 µM. Also, the IC50 on cyclin B/CDK1 enzyme (setting [9]) is > 50 µM.

In the case of `CCN1CCN(c2ccc(N/C=C3\C(=O)NC(=O)c4ccc(-c5ccoc5)cc43)cn2)CC1` [Example 416, (4Z)-4-({[6-(4-Ethylpiperazin-1-yl)pyridin-3-yl]amino}methylene)-6-(3-furyl)isoquinoline-1,3(2H,4H)-dione], the IC50 was 3.1 µM with LoVo (setting [1]); 6.2 µM in the assay on MCF-7 (setting [2]); 2.7 µM in the assay on HCT-116 (setting [3]); 2.5 µM in the assay on BT474 (Homo sapiens, BT-474, 144 h); > 50 µM on cyclin E/CDK2 enzyme (setting [7]); 0.13 µM on cyclin D1/cdk 4 enzyme (setting [8]). In addition, on cyclin B/CDK1 enzyme (setting [9]), the IC50 is > 50 µM.

Turning to `O=C1NC(=O)c2ccc(-c3ccsc3)cc2/C1=C/Nc1ccc(CN2CCC[C@@H]2CO)cc1` (stereo in doubt) [Example 421, 4-{[4-(2-Hydroxymethyl-pyrrolidin-1-ylmethyl)-phenylamino]-methylene}-6-thiophen-3-yl-4H-isoquinoline-1,3-dione], the IC50 is 2.7 µM in the assay with LoVo (setting [1]); 3.8 µM with MCF-7 (setting [2]); 2.6 µM in the assay with HCT-116 (setting [3]); 2.9 µM with BT474 (Homo sapiens, BT-474, 144 h); > 50 µM at cyclin E/CDK2 enzyme (setting [7]); 0.05 µM on cyclin D1/cdk 4 enzyme (setting [8]). The IC50 on cyclin B/CDK1 enzyme (setting [9]) is > 50 µM.

`CN1CCN(c2ccc(NC=C3C(=O)NC(=O)c4ccc(-c5ccc(CO)cc5)cc43)cc2)CC1` [Example 808, 6-(4-Hydroxymethyl-phenyl)-4-{[4-(4-methyl-piperazin-1-yl)-phenylamino]-methylene}-4H-isoquinoline-1,3-dione]: the IC50 in the assay on LoVo (setting [1]) is 5.4 µM; in the assay on MCF-7 (setting [2]) it was 8.6 µM; with HCT-116 (setting [3]), 1.6 µM; in the assay with BT474 (Homo sapiens, BT-474, 144 h), 8 µM; on cyclin E/CDK2 enzyme (setting [4]), > 50 µM; at cyclin D1/cdk 4 enzyme (setting [5]), 0.38 µM. Also, at cyclin B/CDK1 enzyme (setting [6]), the concentration for half-maximal inhibition (IC50) was > 50 µM.

On to `CN(Cc1ccc(NC=C2C(=O)NC(=O)c3ccccc32)cc1)C1CCCCC1` [Example 577, 4-({4-[(Cyclohexyl-methyl-amino)-methyl]-phenylamino}-methylene)-4H-isoquinoline-1,3-dione], for which the IC50 with LoVo (setting [1]) is 14.4 µM; with MCF-7 (setting [2]) it was 20.1 µM; with HCT-116 (setting [3]) it was 9.6 µM; in the assay on BT474 (Homo sapiens, BT-474, 144 h) it was 24.5 µM; on cyclin E/CDK2 enzyme (setting [4]), > 50 µM; at cyclin D1/cdk 4 enzyme (setting [5]), 34 µM. Besides, the IC50 at cyclin B/CDK1 enzyme (setting [6]) was 17.7 µM.

Turning to `CN(C)Cc1ccc(C=Cc2ccc3c(c2)C(=CNCc2ccc(O)c(O)c2)C(=O)NC3=O)cc1` [Example 736, 4-[(3,4-Dihydroxy-benzylamino)-methylene]-6-[2-(4-dimethylaminomethyl-phenyl)-vinyl]-4H-isoquinoline-1,3-dione], the IC50 in the assay on LoVo (setting [1]) is 11.5 µM; in the assay on MCF-7 (setting [2]) it was > 50 µM; in the assay with HCT-116 (setting [3]), 20.5 µM; with BT474 (Homo sapiens, BT-474, 144 h), 39.9 µM; at cyclin E/CDK2 enzyme (setting [4]), 21.1 µM; on cyclin D1/cdk 4 enzyme (setting [5]) it was 0.84 µM. Moreover, the IC50 on cyclin B/CDK1 enzyme (setting [6]) was > 50 µM.

In the case of `CN1CCN(CCN(C)c2ccc(NC=C3C(=O)NC(=O)c4ccc(Br)cc43)cc2)CC1` (stereo in doubt) [Example 870, (4Z)-6-Bromo-4-{[(4-{methyl[2-(4-methylpiperazin-1-yl)ethyl]amino}phenyl)amino]methylene}isoquinoline-1,3(2H,4H)-dione], the IC50 is 10.5 µM with LoVo (setting [1]); 9.2 µM in the assay on MCF-7 (setting [2]); 3 µM in the assay with HCT-116 (setting [3]); 10.2 µM in the assay with BT474 (Homo sapiens, BT-474, 144 h); > 50 µM at cyclin E/CDK2 enzyme (In Vitro Enzyme Assay, read-out: CDK2 IC50); 2.6 µM on cyclin D1/cdk 4 enzyme (In Vitro Enzyme Assay, read-out: CDK4 IC50). Further, the 50% inhibitory concentration (IC50) on cyclin B/CDK1 enzyme (In Vitro Enzyme Assay, read-out: CDK1 IC50) is > 50 µM.

Turning to `NS(=O)(=O)c1ccc(CNC=C2C(=O)NC(=O)c3ccc(-c4ccc[nH]4)cc32)cc1` [Example 638, 4-({[1,3-Dioxo-6-(1H-pyrrol-2-yl)-2,3-dihydro-1H-isoquinolin-4-ylidenemethyl]-amino}-methyl)-benzenesulfonamide], the IC50 in the assay with LoVo (setting [1]) is > 50 µM; with MCF-7 (setting [2]), > 50 µM; with HCT-116 (setting [3]), > 50 µM; with BT474 (Homo sapiens, BT-474, 144 h), 35.9 µM; on cyclin E/CDK2 enzyme (setting [4]), 6 µM; on cyclin D1/cdk 4 enzyme (setting [5]), 0.05 µM. Further, the half-maximal inhibitory concentration (IC50) on cyclin B/CDK1 enzyme (setting [6]) came to 17.3 µM.

Regarding `NS(=O)(=O)c1ccc(CNC=C2C(=O)NC(=O)c3ccc(-c4ccccc4F)cc32)cc1` [Example 740, 4-({[6-(2-Fluoro-phenyl)-1,3-dioxo-2,3-dihydro-1H-isoquinolin-4-ylidenemethyl]-amino}-methyl)-benzenesulfonamide], the IC50 is 10 µM with LoVo (setting [1]); 8.3 µM in the assay with MCF-7 (setting [2]); 7.7 µM in the assay with HCT-116 (setting [3]); 9.7 µM in the assay on BT474 (Homo sapiens, BT-474, 144 h); 3.7 µM on cyclin E/CDK2 enzyme (setting [4]); 1.81 µM on cyclin D1/cdk 4 enzyme (setting [5]). The IC50 on cyclin B/CDK1 enzyme (setting [6]) was determined as 13.5 µM.

For `CC(C)N1CCN(c2ccc(N/C=C3\C(=O)NC(=O)c4ccc(I)cc43)cn2)CC1` [Example 413], the IC50 in the assay on LoVo (setting [1]) is 3.3 µM; in the assay with MCF-7 (setting [2]), 5.8 µM; with HCT-116 (setting [3]) it was 1.9 µM; with BT474 (Homo sapiens, BT-474, 144 h), 5 µM; at cyclin E/CDK2 enzyme (setting [7]), > 50 µM; on cyclin D1/cdk 4 enzyme (setting [8]), 0.19 µM. In addition, on cyclin B/CDK1 enzyme (setting [9]), the concentration for half-maximal inhibition (IC50) is > 50 µM.

Consider `NC(=O)C1CCN(c2ccc(N/C=C3\C(=O)NC(=O)c4ccc(I)cc43)cc2)CC1` [Example 430, 1-(4-{[(Z)-(6-Iodo-1,3-dioxo-2,3-dihydroisoquinolin-4(1H)-ylidene)methyl]amino}phenyl)piperidine-4-carboxamide], for which the half-inhibitory concentration (IC50) came out at 14.9 µM with LoVo (setting [1]); 11.7 µM with MCF-7 (setting [2]); 5.6 µM in the assay on HCT-116 (setting [3]); 13.8 µM in the assay on BT474 (Homo sapiens, BT-474, 144 h); 15.4 µM at cyclin E/CDK2 enzyme (setting [7]); 2.3 µM on cyclin D1/cdk 4 enzyme (setting [8]). The IC50 on cyclin B/CDK1 enzyme (setting [9]) was determined as 19.3 µM.

Take `Cc1ccc(-c2ccc3c(c2)C(=CNCc2ccc(O)c(O)c2)C(=O)NC3=O)cc1` [Example 781, 4-[(3,4-Dihydroxy-benzylamino)-methylene]-6-p-tolyl-4H-isoquinoline-1,3-dione]: the IC50 turned out to be 14 µM with LoVo (setting [1]); 12.7 µM in the assay with MCF-7 (setting [2]); 14.4 µM with HCT-116 (setting [3]); 23.3 µM in the assay with BT474 (Homo sapiens, BT-474, 144 h); 27.7 µM at cyclin E/CDK2 enzyme (setting [4]); 0.74 µM at cyclin D1/cdk 4 enzyme (setting [5]). Moreover, the IC50 at cyclin B/CDK1 enzyme (setting [6]) was > 50 µM.
